One test relates to MCF-7 cells. Description: Breast cancer cell viability assay (CellTiter-Glo, 5 days). Conditions: 5 days' compound exposure; for IC50: Homo sapiens, MCF7, 120 h. The class given is cell-based. In outline:
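MCF-7 cells, 320 per well in RPMI with 10% FBS and 20 mM HEPES, adhered overnight, then exposed 5 days to an eleven-point semilog dilution (final 0.3-0.000003 μM). CellTiter-Glo luminescence read; % viability = (sample − cell-free background)/(untreated − background) × 100.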

For another test, the target named is T1, ER-α in MCF-7 cells (Homo sapiens, UniProt P03372).
T1 sequence (P03372 1-595): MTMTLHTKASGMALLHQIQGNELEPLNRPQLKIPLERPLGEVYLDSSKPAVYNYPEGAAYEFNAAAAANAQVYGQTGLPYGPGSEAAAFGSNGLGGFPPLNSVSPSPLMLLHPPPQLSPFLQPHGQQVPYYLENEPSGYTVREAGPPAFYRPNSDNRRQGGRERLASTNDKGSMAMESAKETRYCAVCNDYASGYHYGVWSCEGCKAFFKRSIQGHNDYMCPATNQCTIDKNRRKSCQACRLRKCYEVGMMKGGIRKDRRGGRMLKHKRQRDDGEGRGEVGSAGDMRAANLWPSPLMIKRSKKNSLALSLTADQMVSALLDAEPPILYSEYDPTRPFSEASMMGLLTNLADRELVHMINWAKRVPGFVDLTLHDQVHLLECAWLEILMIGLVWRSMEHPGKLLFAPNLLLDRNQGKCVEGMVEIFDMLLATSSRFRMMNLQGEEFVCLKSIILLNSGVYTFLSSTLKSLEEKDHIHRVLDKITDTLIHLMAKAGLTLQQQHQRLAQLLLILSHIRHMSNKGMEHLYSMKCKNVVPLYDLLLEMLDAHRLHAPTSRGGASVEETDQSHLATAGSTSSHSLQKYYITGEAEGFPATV
Kind of test: Breast cancer cell ER-α in cell western assay (SP1). Conditions: 4 or 24 hr post compound addition; for Emax: MCF7, SP1 antibody, read-out: ER-α In Cell Western Assay (SP1) Max Response; for DC50: SP1 antibody, read-out: ER-α In Cell Western Assay (SP1) IC50. The class given is cell-based. Details: endogenous in cells; host or cells: MCF-7. Put shortly: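 Read-out is infrared in-cell western: SP1-detected ER intensity at 800 nm divided by DRAQ5 DNA intensity at 700 nm, relative to untreated wells ×100.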

Take `CC/C(=C(/c1ccc(/C=C/C(=O)O)cc1)c1ccc2[nH]ncc2c1)c1cccc(Oc2ccccc2)c1F` [Compound 298, (E)-3-(4-((E)-2-(2-Fluoro-3-phenoxyphenyl)-1-(1H-indazol-5-yl)but-1-en-1-yl)phenyl)acrylic acid]: in the test on MCF-7 cells, the “MCF7 Viability Assay Max Response” value is reported as “++ (++ = a single % value ≧ 40%)” and the IC50 was no more than 100 nM. At ER-α in MCF-7 cells, the Emax was no less than 40% and the DC50 is no more than 100 nM.

For `CC/C(=C(/c1ccc(/C=C/C(=O)O)cc1)c1ccc2scnc2c1)c1cccc(Oc2ccccc2)c1` [Compound 299, (E)-3-(4-((E)-1-(Benzo[d]thiazol-5-yl)-2-(3-phenoxyphenyl)but-1-en-1-yl)phenyl)acrylic acid], in the test with MCF-7 cells, the “MCF7 Viability Assay Max Response” value is “++ (++ = a single % value ≧ 40%)” and the concentration for half-maximal inhibition (IC50) was greater than 100 nM. Moreover, at ER-α in MCF-7 cells, the Emax is no less than 40% and the DC50 was no more than 100 nM.

As to `CC/C(=C(/c1ccc(/C=C/C(=O)O)cc1)c1ccc2scnc2c1)c1cccc(Oc2ccccn2)c1` [Compound 300, (E)-3-(4-((E)-1-(Benzo[d]thiazol-5-yl)-2-(3-(pyridin-2-yloxy)phenyl)but-1-en-1-yl)phenyl)acrylic acid], in the test on MCF-7 cells, the “MCF7 Viability Assay Max Response” value is given as “++ (++ = a single % value ≧ 40%)” and the IC50 was greater than 100 nM. On ER-α in MCF-7 cells, the Emax is no less than 40% and the DC50 was no more than 100 nM.

`CC/C(=C(/c1ccc(/C=C/C(=O)O)cc1)c1ccc2scnc2c1)c1cccc(Oc2cnccn2)c1` [Compound 301, (E)-3-(4-((E)-1-(Benzo[d]thiazol-5-yl)-2-(3-(pyrazin-2-yloxy)phenyl)but-1-en-1-yl)phenyl)acrylic acid]: in the test with MCF-7 cells, the “MCF7 Viability Assay Max Response” value is reported as “++ (++ = a single % value ≧ 40%)” and the IC50 is greater than 100 nM. In addition, on ER-α in MCF-7 cells, the Emax was no less than 40% and the DC50 is no more than 100 nM.

Consider `CC/C(=C(/c1ccc(/C=C/C(=O)O)cc1)c1ccc2[nH]ncc2c1)c1ccc([S+]([O-])C(F)(F)F)cc1` (stereo not drawn) [Compound 302, (E)-3-(4-((E)-1-(1H-Indazol-5-yl)-2-(4-((trifluoromethyl)sulfinyl)phenyl)but-1-en-1-yl)phenyl)acrylic acid], for which, in the test on MCF-7 cells, the “MCF7 Viability Assay Max Response” value was “++ (++ = a single % value ≧ 40%)” and the IC50 is no more than 100 nM. Further, on ER-α in MCF-7 cells, the Emax is no less than 40% and the DC50 is no more than 100 nM.

As to `CC/C(=C(/c1ccc(/C=C/C(=O)O)cc1)c1ccc2[nH]ncc2c1)c1ccncc1C#N` [Compound 303, (E)-3-(4-((E)-2-(3-Cyanopyridin-4-yl)-1-(1H-indazol-5-yl)but-1-en-1-yl)phenyl)acrylic acid], in the test on MCF-7 cells, the “MCF7 Viability Assay Max Response” value is given as “++ (++ = a single % value ≧ 40%)” and the IC50 was greater than 100 nM. On ER-α in MCF-7 cells, the Emax is no less than 40% and the DC50 is greater than 100 nM.

On to `CC/C(=C(/c1ccc(/C=C/C(=O)O)cc1)c1ccc2[nH]ncc2c1)c1ccncc1C(F)(F)F` [Compound 304, (E)-3-(4-((E)-1-(1H-Indazol-5-yl)-2-(3-(trifluoromethyl)pyridin-4-yl)but-1-en-1-yl)phenyl)acrylic acid], for which, in the test with MCF-7 cells, the “MCF7 Viability Assay Max Response” value is on record as “++ (++ = a single % value ≧ 40%)” and the IC50 was no more than 100 nM. In addition, at ER-α in MCF-7 cells, the Emax was no less than 40% and the DC50 was no more than 100 nM.

Consider `O=C(O)/C=C/c1ccc(/C(=C(\c2ccncc2Cl)C2CCC2)c2ccc3[nH]ncc3c2)cc1` [Compound 305, (E)-3-(4-((E)-2-(3-Chloropyridin-4-yl)-2-cyclobutyl-1-(1H-indazol-5-yl)vinyl)phenyl)acrylic acid], for which, in the test with MCF-7 cells, the “MCF7 Viability Assay Max Response” value was “++ (++ = a single % value ≧ 40%)” and the IC50 is no more than 100 nM. Besides, on ER-α in MCF-7 cells, the Emax is no less than 40% and the DC50 is no more than 100 nM.

With `CC/C(=C(/c1ccc(/C=C/C(=O)O)cc1)c1ccc2[nH]nc(F)c2c1)c1ccncc1Cl` [Compound 306, (E)-3-(4-((E)-2-(3-Chloropyridin-4-yl)-1-(3-fluoro-1H-indazol-5-yl)but-1-en-1-yl)phenyl)acrylic acid], in the test on MCF-7 cells, the “MCF7 Viability Assay Max Response” value is on record as “++ (++ = a single % value ≧ 40%)” and the IC50 was no more than 100 nM. Further, at ER-α in MCF-7 cells, the Emax is no less than 40% and the DC50 was no more than 100 nM.

`O=C(O)/C=C/c1ccc(/C(=C(\c2ccncc2Cl)C2CCC2)c2ccc3[nH]nc(F)c3c2)cc1` [Compound 307, (E)-3-(4-((E)-2-(3-Chloropyridin-4-yl)-2-cyclobutyl-1-(3-fluoro-1H-indazol-5-yl)vinyl)phenyl)acrylic acid]: in the test with MCF-7 cells, the “MCF7 Viability Assay Max Response” value is given as “++ (++ = a single % value ≧ 40%)” and the IC50 is no more than 100 nM. Also, at ER-α in MCF-7 cells, the Emax is no less than 40% and the DC50 is no more than 100 nM.

Turning to `O=C(O)/C=C/c1ccc(/C(=C(\c2ccc(F)cc2Cl)C2CCC2)c2ccc3nccn3c2)cc1` [Compound 311, (E)-3-(4-((E)-2-(2-Chloro-4-fluorophenyl)-2-cyclobutyl-1-(imidazo[1,2-a]pyridin-6-yl)vinyl)phenyl)acrylic acid], in the test on MCF-7 cells, the “MCF7 Viability Assay Max Response” value is listed as “++ (++ = a single % value ≧ 40%)” and the IC50 is no more than 100 nM. For the same compound, on ER-α in MCF-7 cells, the Emax was no less than 40% and the DC50 was no more than 100 nM.

As to `CC/C(=C(/c1ccc(/C=C/C(=O)O)cc1)c1ccc2[nH]nc(F)c2c1)c1cscc1C` [Compound 312, (E)-3-(4-((E)-1-(3-Fluoro-1H-indazol-5-yl)-2-(4-methylthiophen-3-yl)but-1-en-1-yl)phenyl)acrylic acid], in the test on MCF-7 cells, the “MCF7 Viability Assay Max Response” value is listed as “++ (++ = a single % value ≧ 40%)” and the IC50 was no more than 100 nM. Besides, on ER-α in MCF-7 cells, the Emax is no less than 40% and the DC50 is no more than 100 nM.

For `Cc1cscc1/C(=C(\c1ccc(/C=C/C(=O)O)cc1)c1ccc2[nH]nc(F)c2c1)C1CCC1` [Compound 313, (E)-3-(4-((E)-2-Cyclobutyl-1-(3-fluoro-1H-indazol-5-yl)-2-(4-methylthiophen-3-yl)vinyl)phenyl)acrylic acid], in the test with MCF-7 cells, the “MCF7 Viability Assay Max Response” value is given as “++ (++ = a single % value ≧ 40%)” and the IC50 was no more than 100 nM. In addition, at ER-α in MCF-7 cells, the Emax was no less than 40% and the DC50 is no more than 100 nM.

For the compound `CC/C(=C(/c1ccc(/C=C/C(=O)O)cc1)c1ccc2[nH]ncc2c1)c1ccc2sncc2c1` [Compound 314, (E)-3-(4-((E)-2-(Benzo[d]isothiazol-5-yl)-1-(1H-indazol-5-yl)but-1-en-1-yl)phenyl)acrylic acid], in the test with MCF-7 cells, the “MCF7 Viability Assay Max Response” value is recorded as “++ (++ = a single % value ≧ 40%)” and the IC50 was no more than 100 nM. Moreover, at ER-α in MCF-7 cells, the Emax was no less than 40% and the DC50 is no more than 100 nM.

In the case of `CC/C(=C(/c1ccc(/C=C/C(=O)O)cc1)c1ccc2[nH]ncc2c1)c1ccc(Oc2ccncc2)cc1` [Compound 315, (E)-3-(4-((E)-1-(1H-Indazol-5-yl)-2-(4-(pyridin-4-yloxy)phenyl)but-1-en-1-yl)phenyl)acrylic acid], in the test on MCF-7 cells, the “MCF7 Viability Assay Max Response” value is listed as “++ (++ = a single % value ≧ 40%)” and the IC50 was no more than 100 nM. On ER-α in MCF-7 cells, the Emax is no less than 40% and the DC50 was no more than 100 nM.

Consider `CC/C(=C(/c1ccc(/C=C/C(=O)O)cc1)c1ccc2[nH]ncc2c1)c1ccc(Oc2ccccn2)cc1` [Compound 316, (E)-3-(4-((E)-1-(1H-Indazol-5-yl)-2-(4-(pyridin-2-yloxy)phenyl)but-1-en-1-yl)phenyl)acrylic acid], for which, in the test on MCF-7 cells, the “MCF7 Viability Assay Max Response” value was “++ (++ = a single % value ≧ 40%)” and the IC50 is no more than 100 nM. In addition, at ER-α in MCF-7 cells, the Emax was no less than 40% and the DC50 was no more than 100 nM.

Regarding `CC/C(=C(/c1ccc(/C=C/C(=O)O)cc1)c1ccc2[nH]ncc2c1)c1ccc(Cc2ccccc2)cc1` [Compound 317, (E)-3-(4-((E)-2-(4-Benzylphenyl)-1-(1H-indazol-5-yl)but-1-en-1-yl)phenyl)acrylic acid], in the test with MCF-7 cells, the “MCF7 Viability Assay Max Response” value is “++ (++ = a single % value ≧ 40%)” and the IC50 was no more than 100 nM. At ER-α in MCF-7 cells, the Emax is no less than 40% and the DC50 is no more than 100 nM.

On to `CC/C(=C(/c1ccc(/C=C/C(=O)O)cc1)c1ccc2[nH]ncc2c1)c1ccc(C)c(Oc2ccccc2)c1` [Compound 318, (E)-3-(4-((E)-1-(1H-Indazol-5-yl)-2-(4-methyl-3-phenoxyphenyl)but-1-en-1-yl)phenyl)acrylic acid], for which, in the test with MCF-7 cells, the “MCF7 Viability Assay Max Response” value is “++ (++ = a single % value ≧ 40%)” and the IC50 is greater than 100 nM. For the same compound, at ER-α in MCF-7 cells, the Emax was no less than 40% and the DC50 is no more than 100 nM.

Broadly, the IC50 is the midpoint of a concentration-inhibition curve.

The record behind these values is US9399646B2 (Genentech, Inc., priority 2010, dated 2016).
